In the NIST ThermoML archive (doi:10.1016/j.jct.2012.06.031):

Experiment: xn = mol fraction of the nth substance listed
Conditions: 101 kPa, Liquid; for viscosity: Concentric cylinders viscometry; for mass density: Vibrating tube method

OCCCO [propan-1,3-diol] + c1ccncc1
Conditions	mass density [kg/m3]	viscosity [mPa·s]
288.15 K, x2 = 0	1056.12	66.53
288.15 K, x2 = 0.0999	1050.49	50.57
288.15 K, x2 = 0.2	1044.96	35.44
288.15 K, x2 = 0.3	1038.93	23
288.15 K, x2 = 0.4001	1032.58	14.29
288.15 K, x2 = 0.5	1025.96	8.708
288.15 K, x2 = 0.5999	1018.97	5.207
288.15 K, x2 = 0.7	1011.77	3.264
288.15 K, x2 = 0.7998	1004.3	2.111
288.15 K, x2 = 0.8998	996.608	1.46
293.15 K, x2 = 0	1053.02	51.91
293.15 K, x2 = 0.0999	1047.19	39.57
293.15 K, x2 = 0.2	1041.48	27.99
293.15 K, x2 = 0.3	1035.25	18.46
293.15 K, x2 = 0.4001	1028.71	11.68
293.15 K, x2 = 0.5	1021.91	7.266
293.15 K, x2 = 0.5999	1014.73	4.467
293.15 K, x2 = 0.7	1007.35	2.869
293.15 K, x2 = 0.7998	999.687	1.897
293.15 K, x2 = 0.8998	991.803	1.336
298.15 K, x2 = 0	1049.91	41.04
298.15 K, x2 = 0.0999	1043.89	31.39
298.15 K, x2 = 0.2	1037.98	22.36
298.15 K, x2 = 0.3	1031.55	14.91
298.15 K, x2 = 0.4001	1024.82	9.617
298.15 K, x2 = 0.5	1017.85	6.147
298.15 K, x2 = 0.5999	1010.48	3.867
298.15 K, x2 = 0.7	1002.91	2.54
298.15 K, x2 = 0.7998	995.061	1.715
298.15 K, x2 = 0.8998	986.987	1.228
303.15 K, x2 = 0	1046.79	32.84
303.15 K, x2 = 0.0999	1040.57	25.21
303.15 K, x2 = 0.2	1034.47	18.15
303.15 K, x2 = 0.3	1027.85	12.34
303.15 K, x2 = 0.4001	1020.93	8.079
303.15 K, x2 = 0.5	1013.76	5.244
303.15 K, x2 = 0.5999	1006.21	3.38
303.15 K, x2 = 0.7	998.466	2.266
303.15 K, x2 = 0.7998	990.425	1.557
303.15 K, x2 = 0.8998	982.158	1.132
308.15 K, x2 = 0	1043.64	26.58
308.15 K, x2 = 0.0999	1037.24	20.48
308.15 K, x2 = 0.2	1030.94	14.88
308.15 K, x2 = 0.3	1024.12	10.26
308.15 K, x2 = 0.4001	1017.01	6.845
308.15 K, x2 = 0.5	1009.66	4.549
308.15 K, x2 = 0.5999	1001.93	2.976
308.15 K, x2 = 0.7	994	2.033
308.15 K, x2 = 0.7998	985.773	1.424
308.15 K, x2 = 0.8998	977.312	1.05
313.15 K, x2 = 0	1040.49	21.74
313.15 K, x2 = 0.0999	1033.89	16.82
313.15 K, x2 = 0.2	1027.39	12.32
313.15 K, x2 = 0.3	1020.38	8.615
313.15 K, x2 = 0.4001	1013.08	5.832
313.15 K, x2 = 0.5	1005.55	3.951
313.15 K, x2 = 0.5999	997.629	2.636
313.15 K, x2 = 0.7	989.518	1.835
313.15 K, x2 = 0.7998	981.102	1.307
313.15 K, x2 = 0.8998	972.452	0.975
318.15 K, x2 = 0	1037.31	17.95
318.15 K, x2 = 0.0999	1030.51	13.94
318.15 K, x2 = 0.2	1023.82	10.31
318.15 K, x2 = 0.3	1016.62	7.299
318.15 K, x2 = 0.4001	1009.13	5.033
318.15 K, x2 = 0.5	1001.41	3.455
318.15 K, x2 = 0.5999	993.305	2.35
318.15 K, x2 = 0.7	985.015	1.663
318.15 K, x2 = 0.7998	976.412	1.204
318.15 K, x2 = 0.8998	967.572	0.9082
323.15 K, x2 = 0	1034.12	14.96
323.15 K, x2 = 0.0999	1027.12	11.75
323.15 K, x2 = 0.2	1020.24	8.779
323.15 K, x2 = 0.3	1012.83	6.286
323.15 K, x2 = 0.4001	1005.15	4.412
323.15 K, x2 = 0.5	997.251	3.078
323.15 K, x2 = 0.5999	988.961	2.139
323.15 K, x2 = 0.7	980.49	1.53
323.15 K, x2 = 0.7998	971.701	1.119
323.15 K, x2 = 0.8998	962.672	0.8532

c1ccncc1 [pyridine] + CCCO
Conditions	mass density [kg/m3]	viscosity [mPa·s]
288.15 K, x1 = 0.1001	829.179	2.059
288.15 K, x1 = 0.1998	849.304	1.752
288.15 K, x1 = 0.2999	868.538	1.533
288.15 K, x1 = 0.3998	887.029	1.38
288.15 K, x1 = 0.5	904.882	1.258
288.15 K, x1 = 0.5999	922.323	1.189
288.15 K, x1 = 0.7	939.461	1.127
288.15 K, x1 = 0.8	956.178	1.091
288.15 K, x1 = 0.8998	972.394	1.065
288.15 K, x1 = 1	988.061	1.03
293.15 K, x1 = 0.1001	825.041	1.839
293.15 K, x1 = 0.1998	845.036	1.577
293.15 K, x1 = 0.2999	864.154	1.392
293.15 K, x1 = 0.3998	882.542	1.261
293.15 K, x1 = 0.5	900.296	1.156
293.15 K, x1 = 0.5999	917.643	1.096
293.15 K, x1 = 0.7	934.697	1.043
293.15 K, x1 = 0.8	951.331	1.012
293.15 K, x1 = 0.8998	967.464	0.9891
293.15 K, x1 = 1	983.038	0.9588
298.15 K, x1 = 0.1001	820.881	1.651
298.15 K, x1 = 0.1998	840.744	1.426
298.15 K, x1 = 0.2999	859.747	1.269
298.15 K, x1 = 0.3998	878.034	1.157
298.15 K, x1 = 0.5	895.691	1.066
298.15 K, x1 = 0.5999	912.947	1.014
298.15 K, x1 = 0.7	929.913	0.9678
298.15 K, x1 = 0.8	946.465	0.942
298.15 K, x1 = 0.8998	962.52	0.9212
298.15 K, x1 = 1	978.006	0.8943
303.15 K, x1 = 0.1001	816.69	1.488
303.15 K, x1 = 0.1998	836.425	1.291
303.15 K, x1 = 0.2999	855.316	1.165
303.15 K, x1 = 0.3998	873.5	1.064
303.15 K, x1 = 0.5	891.065	0.9865
303.15 K, x1 = 0.5999	908.231	0.9414
303.15 K, x1 = 0.7	925.114	0.9013
303.15 K, x1 = 0.8	941.586	0.879
303.15 K, x1 = 0.8998	957.564	0.8608
303.15 K, x1 = 1	972.967	0.8355
308.15 K, x1 = 0.1001	812.466	1.355
308.15 K, x1 = 0.1998	832.074	1.179
308.15 K, x1 = 0.2999	850.857	1.065
308.15 K, x1 = 0.3998	868.942	0.9819
308.15 K, x1 = 0.5	886.415	0.9149
308.15 K, x1 = 0.5999	903.494	0.8753
308.15 K, x1 = 0.7	920.29	0.8408
308.15 K, x1 = 0.8	936.687	0.8222
308.15 K, x1 = 0.8998	952.593	0.8059
308.15 K, x1 = 1	967.913	0.7837
313.15 K, x1 = 0.1001	808.203	1.205
313.15 K, x1 = 0.1998	827.676	1.076
313.15 K, x1 = 0.2999	846.364	0.9804
313.15 K, x1 = 0.3998	864.355	0.9082
313.15 K, x1 = 0.5	881.735	0.8506
313.15 K, x1 = 0.5999	898.73	0.8167
313.15 K, x1 = 0.7	915.449	0.786
313.15 K, x1 = 0.8	931.765	0.7718
313.15 K, x1 = 0.8998	947.604	0.7566
313.15 K, x1 = 1	962.849	0.7354
318.15 K, x1 = 0.1001	803.899	1.103
318.15 K, x1 = 0.1998	823.264	0.9855
318.15 K, x1 = 0.2999	841.834	0.9038
318.15 K, x1 = 0.3998	859.731	0.8426
318.15 K, x1 = 0.5	877.027	0.7926
318.15 K, x1 = 0.5999	893.938	0.7629
318.15 K, x1 = 0.7	910.581	0.7363
318.15 K, x1 = 0.8	926.83	0.7244
318.15 K, x1 = 0.8998	942.596	0.711
318.15 K, x1 = 1	957.769	0.6912
323.15 K, x1 = 0.1001	799.541	1.009
323.15 K, x1 = 0.1998	818.793	0.9116
323.15 K, x1 = 0.2999	837.265	0.844
323.15 K, x1 = 0.3998	855.071	0.7875
323.15 K, x1 = 0.5	872.286	0.7452
323.15 K, x1 = 0.5999	889.121	0.719
323.15 K, x1 = 0.7	905.688	0.6954
323.15 K, x1 = 0.8	921.867	0.6813
323.15 K, x1 = 0.8998	937.566	0.6741
323.15 K, x1 = 1	952.673	0.6507
